Reference: paper PMC4977052, “On the Utility of ToxCast™ and ToxPi as Methods for Identifying New Obesogens” (Environmental Health Perspectives, 2016)
Like-named read-outs stand apart in the source and are kept apart here.

Tests used:
[1] = test system: PPRE; parameters: method as in Knudsen et al. 2011; conditions: ToxCast Phase I 2011 release; NA = not active; ref Knudsen et al. 2011; read-out: ATGC PPRE AC50; cited from earlier work
[2] = test system: LXRβ; parameters: method as in Knudsen et al. 2011; conditions: ToxCast Phase I 2011 release; NA = not active; ref Knudsen et al. 2011; read-out: ATGT LXRβ AC50; cited from earlier work
[3] = test system: PPARγ; conditions: cited from earlier work
[4] = test system: LXRα; parameters: method as in Knudsen et al. 2011; conditions: ToxCast Phase I 2011 release; NA = not active; ref Knudsen et al. 2011; read-out: ATGT LXRα AC50; cited from earlier work
[5] = biological target: T1, GAL4-mPPARγ (Mus musculus, UniProt P37238); assay: GAL4-mPPARγ activation, transient transfection luciferase reporter in COS7 cells; type: cell-based; conditions: for Activation COS7 (result in words), ToxCast PPARγ list: PPARγ activation or antagonism assays (Table 1, Table S6); for Activation of GAL4-PPARγ (text): COS7, 100 μM through 0.137 μM
T1 construct: expressed in transfected cells; host or cells: COS7

[6] = test system: LXRβ; parameters: method as in Knudsen et al. 2011; conditions: ToxCast Phase I 2011 release; NA = not active; ref Knudsen et al. 2011; read-out: NCGC LXR AC50; cited from earlier work
[7] = test system: PPARγ; parameters: method as in Filer et al. 2014; conditions: PPARγ; NA = not active; ref Filer et al. 2014; read-out: NCGC Antag. AC50, 2014 Release; cited from earlier work
[8] = test system: 3T3-L1 preadipocytes; assay: 3T3-L1 adipogenesis assay (lipid accumulation, adipogenic gene expression); type: cell-based; conditions: 0.02-20 μM, 5 days after MDI induction
Outline: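 After 2-day MDI induction with biotin and pantothenate, 3T3-L1 cells were treated 5 days with chemicals at 0.02–20 μM (0.1% DMSO; 10 μM if toxic). Lipid read as Nile red/Hoechst fluorescence ratio; adipogenic genes by QPCR, 2^ΔΔCt versus 36b4, normalized to DMSO.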

[9] = test system: 3T3-L1 preadipocytes; parameters: method as in earlier work; conditions: not tested here; ref Kanayama et al. 2005; Li et al. 2012; Chamorro-García et al. 2012; Masuno et al. 2002; cited from earlier work
[10] = test system: DR4/LXRE; parameters: method as in Knudsen et al. 2011; conditions: ToxCast Phase I 2011 release; NA = not active; ref Knudsen et al. 2011; read-out: ATGC LXRE AC50; cited from earlier work
[11] = test system: RXRα; conditions: ToxCast Phase I 2011 release; NA = not active; ref Knudsen et al. 2011; read-out: NCGC RXRα AC50; cited from earlier work
[12] = test system: SREBP; parameters: method as in Knudsen et al. 2011; conditions: ToxCast Phase I 2011 release; NA = not active; ref Knudsen et al. 2011; read-out: ATGC SREBP AC50; cited from earlier work
[13] = test system: Human PPARγ; conditions: cited from earlier work
[14] = test system: PPARγ; conditions: ref Filer et al. 2014, cited from earlier work
[15] = test system: C/EBP; parameters: method as in Knudsen et al. 2011; conditions: ToxCast Phase I 2011 release; NA = not active; ref Knudsen et al. 2011; read-out: ATGC CEBP AC50; cited from earlier work
[16] = test system: COS7 cells; assay: Cytotoxicity in transfected COS7 cells measured as decreased β-galactosidase activity; conditions: African green monkey, 24 h
Description: pCMX-Gal4, pCMX-Gal4-mPPARγ, and pCMX-Gal4-hRXRα were previously described ([Grün et al. 2006]). Transient transfections were performed in COS7 cells as described ([Chamorro-García et al. 2012]). Briefly, COS7 cells were seeded at 15,000 cells per well in 96-well tissue culture plates in 10% calf bovine serum. The following day, cells were transfected in Opti-MEM at ~ 90% confluency. One microgram of CMX-GAL4 effector plasmid was co-transfected with 5 μg tk-(MH100)4-luciferase reporter and 5 μg of CMX-β-galactosidase transfection control plasmids in Opti-MEM® using Lipofectamine® 2000 reagent (Invitrogen™ Life Technologies, Carlsbad, CA, USA), following the manufacturer’s recommended protocol. All chemicals were solvated in dimethyl sulfoxide (DMSO). After overnight incubation, the medium was replaced with Dulbecco’s Modified Eagle Medium (DMEM; HyClone, Logan, UT, USA), 10% resin charcoal stripped fetal bovine serum (FBS) plus ligands at concentrations indicated in the figure legends for an additional 24 hr. DMSO concentration was maintained at 0.05% across all chemical treatments. Cells were lysed and assayed for luciferase and β-galactosidase activity as previously described ([Forman et al. 1995]). All transfections were performed in triplicate and reproduced in multiple experiments. Data are reported as fold induction or reduction over vehicle ([…]) controls ± SEM (standard error of the mean) using standard propagation of error ([Bevington and Robinson 2003]). […] The EC50, EC10, IC50, and IC10 values from NCGC and ToxCast™ are reported from gain AC50 and AC10 values in the ToxCast™ 2014 release ([Filer et al. 2014]).
Figure 1 ToxCast™ Chemical Activity on PPARγ. The ability of a graded dose series of ToxCast™ chemicals to (A) activate or (B) antagonize GAL4-mPPARγ was tested in transiently transfected COS7 cells. (A, B) Data points are averages of triplicate transfections (three biological replicates). […] Data are depicted as (A) fold induction or (B) reduction over vehicle (0.05% DMSO) controls ± SEM. (A) ToxCast™ chemicals were tested in 3-fold serial dilutions from 100 μM through 0.137 μM, with the final data point being 0.05% DMSO. Rosiglitazone serves as a positive control activator. (B) ToxCast™ chemicals were tested in 3-fold serial dilutions from 100 μM, in competition with 50 nM rosiglitazone (Rosi). […] (C) EC50, EC10, IC50, and IC10 values calculated from A and B are reported and compared to commercial assays (see Figure S1). Note: ATG, Attagene GAL-PPARγ activation assay; NCGC, GeneBLAzer® agonist (EC values) or antagonist (IC values) assays. Triphenyltin was previously published ([Kanayama et al. 2005]).

[17] = PPARγ, NA = not active, ref Filer et al. 2014, read-out: ATG Agonist AC50, 2014 Release
[18] = PPARγ, NA = not active, ref Knudsen et al. 2011, read-out: ATG Agonist AC50, 2011 Release
[19] = Cos-7 transient transfection, PPARγ or RXRα activation assays (Table 2)
[20] = ToxCast Phase I 2011 release, NA = not active, ref Knudsen et al. 2011, read-out: ATGT PPARγ AC50
[21] = PPARγ direct binding, NA = not active, ref Filer et al. 2014, read-out: NVS Agonist AC50, 2014 Release
[22] = PPARγ direct binding, NA = not active, ref Knudsen et al. 2011, read-out: NVS Agonist AC50, 2011 Release
[23] = PPARγ, NA = not active, read-out: NCGC Agonist AC50, 2014 Release

T1 sequence (P37238 with tags, fused parts or gaps limits assumed): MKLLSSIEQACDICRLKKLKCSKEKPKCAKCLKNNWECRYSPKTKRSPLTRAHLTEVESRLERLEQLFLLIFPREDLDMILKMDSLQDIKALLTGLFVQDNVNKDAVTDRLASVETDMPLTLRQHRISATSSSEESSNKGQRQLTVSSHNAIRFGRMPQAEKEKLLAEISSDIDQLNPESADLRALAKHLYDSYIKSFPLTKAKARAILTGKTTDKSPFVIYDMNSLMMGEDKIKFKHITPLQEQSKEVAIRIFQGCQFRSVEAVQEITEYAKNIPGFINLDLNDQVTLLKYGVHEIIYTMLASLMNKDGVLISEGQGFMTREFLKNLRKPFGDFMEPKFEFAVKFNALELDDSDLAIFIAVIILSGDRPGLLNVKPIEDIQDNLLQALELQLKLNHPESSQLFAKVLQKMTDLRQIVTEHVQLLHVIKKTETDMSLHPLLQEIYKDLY

## Cc1nn(C)c(Oc2ccccc2)c1C=NOCc1ccc(C(=O)OC(C)(C)C)cc1 [(Z,E)-Fenpyroximate]
[1]
  AC50: 0.065 µM
[2]
  AC50: 8.8 µM
[3]; [17]
  AC50: 2.4 µM
[3]; [18]
  AC50: 8.6 µM
[4]
  AC50: 4.3 µM
[5]; Cos-7 transient transfection
  Activation COS7 (result in words), ToxCast PPARγ list: Inactive
[5]; [19]
  Activation COS7 (result in words), ToxPi chemicals: Inactive
[6]
  AC50: 6.9 µM
[7]
  AC50: 35.9 µM
[8]
  Adipogenesis 3T3-L1 (result in words): Negative

## CC(C)(c1ccc(O)cc1)c1ccc(O)cc1 [Bisphenol A]
[1]
  AC50: 37 µM
[3]; [20]
  AC50: 27 µM
[9]
  Adipogenesis 3T3-L1 (result in words), previously published: Positive
[5]; [19]
  Activation COS7 (result in words), ToxPi chemicals: Inactive

## COP(=S)(OC)Oc1ccc(SC)c(C)c1 [Fenthion]
[1]
  AC50: 18 µM
[2]
  AC50: 37 µM
[3]; [20]
  AC50: 36 µM
[4]
  AC50: 33 µM
[5]; [19]
  Activation COS7 (result in words), ToxPi chemicals: Inactive
[10]
  AC50: 34 µM
[8]
  Adipogenesis 3T3-L1 (result in words): Negative

## C=CCOC(Cn1ccnc1)c1ccc(Cl)cc1Cl (stereo not drawn) [Imazalil]
[11]
  AC50: 3.2 µM
[3]; [20]
  AC50: 73 µM
[5]; [19]
  Activation COS7 (result in words), ToxPi chemicals: Inactive
[8]
  Adipogenesis 3T3-L1 (result in words): Negative

## C[Si](Cn1cncn1)(c1ccc(F)cc1)c1ccc(F)cc1 [Flusilazole]
[1]
  AC50: 46 µM
[3]; [20]
  AC50: 51 µM
[5]; [19]
  Activation COS7 (result in words), ToxPi chemicals: Inactive
[12]
  AC50: 20 µM
[8]
  Adipogenesis 3T3-L1 (result in words): Positive

## [OH-].c1cc[c]([Sn+]([c]2ccccc2)[c]2ccccc2)cc1 [Triphenyltin]
[13]; [21]
  AC50: 0.28 µM
[13]; [22]
  AC50: 0.54 µM
[1]
  AC50: 0.009 µM
[3]; [17]
  AC50: 0.02 µM
[3]; [18]
  AC50: 0.022 µM
[9]
  Adipogenesis 3T3-L1 (result in words), previously published: Positive
[5]
  Activation of GAL4-PPARγ (text): activated GAL-PPARγ
[5]; Cos-7 transient transfection
  Activation COS7 (result in words), ToxCast PPARγ list: PPARγ activator
[5]; [19]
  Activation COS7 (result in words), ToxPi chemicals: PPARγ activator
[5]; read-out: Activation AC50 (PPARγ activators), Cos-7 transient transfection
  AC50: 0.02 µM
[7]
  AC50: 0.02 µM
[14]; [23]
  AC50: 21.6 µM

## C=CCC1=C(C)C(OC(=O)C2C(C=C(C)C)C2(C)C)CC1=O (mixture of isomers) [d-cis,trans-Allethrin]
[1]
  AC50: 36 µM
[15]
  AC50: 25 µM
[3]; [20]
  AC50: 36 µM
[5]; [19]
  Activation COS7 (result in words), ToxPi chemicals: Inactive
[6]
  AC50: 11.9 µM
[12]
  AC50: 48 µM
[8]
  Adipogenesis 3T3-L1 (result in words): Negative

## CCCOC/C(=N\c1ccc(Cl)cc1C(F)(F)F)n1ccnc1 [Triflumizole]
[13]; [21]
  AC50: 20.8 µM
[13]; [22]
  AC50: 35 µM
[13]; direct binding, ToxCast 2014 release, ref Filer et al. 2014, read-out: NovaScreen AC50 (panel A)
  AC50: 14.1 µM
[3]; [17]
  AC50: 2.2 µM
[3]; [18]
  AC50: 2.8 µM
[3]; ToxCast 2014 release, ref Filer et al. 2014, read-out: Attagene AC50 (panel A, w/o Z-Score Correction ranking)
  AC50: 20.4 µM
[9]
  Adipogenesis 3T3-L1 (result in words), previously published: Positive
[5]
  Activation of GAL4-PPARγ (text): activated GAL-PPARγ
[5]; Cos-7 transient transfection
  AC50: 11.5 µM
  Activation COS7 (result in words), ToxCast PPARγ list: PPARγ activator
[7]
  AC50: 0.3 µM
[16]
  Concentration at which cytotoxicity (decreased β-galactosidase activity) was observed: 100 µM
[14]; [23]
  AC50: 67.5 µM
[14]; ToxCast 2014 release, read-out: Tox21/NCGC AC50 (panel A)
  AC50: 79.9 µM

## C#CCC1=C(C)C(OC(=O)C2C(C=C(C)C)C2(C)C)CC1=O (stereo not drawn) [Prallethrin]
[1]
  AC50: 8.4 µM
[15]
  AC50: 29 µM
[3]; [20]
  AC50: 44 µM
[5]
  Activation COS7 (result in words), ToxPi chemicals: Inactive
[6]
  AC50: 16.7 µM
[12]
  AC50: 33 µM
[8]
  Adipogenesis 3T3-L1 (result in words): Negative

## CCOP(=S)(Oc1cnc(C(C)(C)C)nc1)OC(C)C (stereo not drawn) [Tebupirimfos]
[2]
  AC50: 22 µM
[3]; [20]
  AC50: 43 µM
[4]
  AC50: 30 µM
[5]; [19]
  Activation COS7 (result in words), ToxPi chemicals: Inactive
[6]
  AC50: 7.1 µM
[10]
  AC50: 9.4 µM
[12]
  AC50: 31 µM
[8]
  Adipogenesis 3T3-L1 (result in words): Positive
